Where a name gives a salt, the structure may show the parent alone. Read-outs that look alike come from different tables or passages of the source.
Assays:
male CD1 mice = experiment: acetic acid-induced writhing assay after sc administration; format: in vivo, mouse; conditions: for ED50: Mus musculus, 0.5 h, read-out: ED50 (95% CI), mice, sc, inhibition of writhing 30 min after drug administration; for ED50 (95% CI): mice, inhibition of writhing 30 min after drug administration
Method: Solutions of test compounds were prepared in sterile physiological 0.9% saline and further diluted to working doses in saline solution. Test compounds or saline (control) were administered by sc route in a volume of 10 μL/1 g of body weight. All doses are expressed in terms of salts. Separate groups of mice received the respective dose of compound, and individual mice were only used once for behavioral testing.
Writhing was induced in male CD1 mice by ip injection of a 0.6% acetic acid aqueous solution as described previously.[48],[62] Groups of mice were administered sc different doses of test compound or saline (control), and 5 min prior to testing (25 min after drug or saline), each animal received an ip injection of acetic acid solution. Each mouse was placed in individual transparent Plexiglas chambers, and the number of writhes was counted during a 10 min observation period. […] For the antagonism study, naloxone methiodide was sc co-administered with the respective opioid agonist, and writhing was assessed as described above.
(§1) Data were analyzed and graphically processed using the GraphPad Prism 5.0 Software (GraphPad Prism Software Inc., San Diego, CA). For in vitro assays, inhibition constant (Ki in nM), potency (EC50 in nM), and efficacy (% stimulation) values were determined from concentration–response curves by nonlinear regression analysis. The Ki values were determined by the method of Cheng and Prusoff.[66] In the [^35S]GTPγS binding assays, efficacy was determined relative to the reference full opioid agonists, DAMGO (MOR), DPDPE (DOR), and U69,593 (KOR). In vitro data are presented as mean ± SEM of three to four independent experiments each performed in duplicate. […] Each experimental group included six to seven mice. Data were statistically evaluated using one-way ANOVA with Tukey’s post hoc test for multiple comparisons with significance set at P < 0.05.

DOR [1] = target: T1, DOR (Homo sapiens, UniProt P41143); experiment: [35S]GTPγS binding assay, CHO-hDOR membranes; format: biochemical; conditions: for EC50: [35S]GTPγS, CHO human DOR membranes; for Emax: relative to reference full agonist DPDPE, read-out: DOR % stim.
T1 construct: host or cells: CHO (CHO-hDOR)
Method: (§2) Efficacies are presented as percentage stimulation relative to the standard full agonists, [D-Ala^2,N-Me-Phe4,Gly-ol^5]enkephalin (DAMGO for MOR),[53] [D-Pen^2,D-Pen^5]enkephalin (DPDPE for DOR)[54] and N-methyl-2-phenyl-N-[(5R,7S,8S)-7-(pyrrolidin-1-yl)-1-oxaspiro[4.5]dec-8-yl]acetamide (U69,593 for KOR).[55]
(§3) Membranes from CHO cells expressing human opioid receptors were prepared in 50 mM Tris-HCl buffer (pH 7.7) according to a previously described procedure.[64] Cells expressing human opioid receptors grown at confluence were removed from the culture plates by scraping, homogenized in 50 mM Tris buffer (pH 7.7), using a Polytron homogenizer, then centrifuged once and washed by an additional centrifugation at 27 000g for 15 min, at 4 °C. The final pellet was resuspended in Tris buffer and stored at −80 °C until use. Protein content of brain and cell membrane preparation homogenates was determined by the method of Bradford using bovine serum albumin as the standard.[65]
(§4) Binding of [^35S]GTPγS to membranes from CHO cells stably expressing the human opioid receptors was conducted according to the published procedures.[49],[64] Cell membranes (5–10 μg) in 20 mM HEPES, 10 mM MgCl2, and 100 mM NaCl (pH 7.4) were incubated with 0.05 nM [^35S]GTPγS, 10 μM GDP, and various concentrations of test compound in a final volume of 1 mL, for 60 min at 25 °C. Nonspecific binding was determined using 10 μM GTPγS, and the basal binding was determined in the absence of test ligand. Samples are filtered over glass Whatman glass GF/B fiber filters and counted as described for binding assays. All experiments were performed in duplicate and repeated at least three times.
as §1

KOR [2] = target: T2, KOR (Homo sapiens, UniProt P41145); experiment: [35S]GTPγS binding assay, CHO-hKOR membranes; format: biochemical; conditions: for EC50: [35S]GTPγS, CHO human KOR membranes, read-out: KOR EC50; for Emax: relative to reference full agonist U69,593, read-out: KOR % stim.; for functional profile at KOR (full/partial agonist): partial agonist <85% of the response to U69,593
T2 construct: host or cells: CHO (CHO-hKOR)
Method: as §2, §3, §4, §1

MOR [3] = target: T3, MOR (Homo sapiens, UniProt P35372); experiment: [35S]GTPγS binding assay, CHO-hMOR membranes; format: biochemical; conditions: for Emax: relative to reference full agonist DAMGO, read-out: MOR % stim.
T3 construct: host or cells: CHO (CHO-hMOR)
Method: as §2, §3, §4, §1

DOR [4] = target: T4, DOR (Rattus norvegicus, UniProt P33533); experiment: competition radioligand binding, rat brain membranes, [3H][Ile5,6]deltorphin II; conditions: rat brain membranes; read-out: opioid receptor binding Ki DOR
T4 construct: Membranes were prepared from Sprague-Dawley rat brains or guinea-pig brains according to the described procedures; tissue Labortierkunde und Laborgenetik, Medizinische Universität Wien; host or cells: Sprague-Dawley rat brain without cerebella
Method: (§5) Competition binding assays using rat brain (MOR and DOR) and guinea-pig brain (KOR) membranes (Table 1) were performed according to published procedures.[44],[49] […] In addition, we have assessed binding at the human opioid receptors stably transfected in Chinese hamster ovary (CHO) cells (Table S1).
(§6) Membranes were prepared from Sprague-Dawley rat brains or guinea-pig brains according to the described procedures.[44],[45] Brains without cerebella were homogenized on ice in 5 vol/wt of ice-cold 50 mM Tris-HCl buffer (pH 7.4) and diluted in 30 vol/wt of the same buffer. After centrifugation at 40 000g for 20 min at 4 °C, the pellets were resuspended in 30 vol/wt of 50 mM Tris-HCl buffer (pH 7.4) and incubated at 37 °C for 30 min. The centrifugation step described above was repeated, and the final pellets were resuspended in 5 vol/wt of 50 mM Tris-HCl buffer (pH 7.4) containing 0.32 M sucrose and stored at −80 °C until use.
(§7) Rat brain membranes were incubated with either [^3H]DAMGO (1 nM, 45 min, 35 °C) or [^3H][Ile^5,6]deltorphin II (0.5 nM, 45 min, 35 °C) for labeling MOR or DOR receptors, respectively. Guinea-pig brain membranes were incubated with [^3H]U69,593 (1 nM, 30 min, 30 °C) for labeling KOR. Binding assays with CHO cell membranes were conducted at 25 °C for 60 min using [^3H]DAMGO (1 nM) or [^3H]diprenorphine (0.2 nM) for labeling MOR or DOR, respectively. Nonspecific binding was determined using 10 μM naloxone (rodent brain) or 1–10 μM of the unlabeled counterpart of each radioligand (CHO cells). Reactions were terminated by rapid filtration through Whatman glass fiber GF/C filters. Filters were washed three times with 5 mL of ice-cold 50 mM Tris-HCl buffer (pH 7.4) using a Brandel M24R cell harvester (Gaithersburg, MD). Radioactivity retained on the filters was counted by liquid scintillation counting using a Beckman Coulter LS6500 (Beckman Coulter Inc., Fullerton, CA). All binding experiments were performed in duplicate and repeated at least three times.
as §1

KOR [5] = target: T5, KOR (Cavia porcellus, UniProt P41144); experiment: competition radioligand binding, guinea-pig brain membranes, [3H]U69,593; conditions: guinea-pig brain membranes; read-out: opioid receptor binding Ki KOR
T5 construct: Membranes were prepared from Sprague-Dawley rat brains or guinea-pig brains according to the described procedures; tissue Labortierkunde und Laborgenetik, Medizinische Universität Wien; host or cells: guinea-pig brain without cerebella
Method: as §5, §6, §7, §1

MOR [6] = target: T6, MOR (Rattus norvegicus, UniProt P33535); experiment: competition radioligand binding, rat brain membranes, [3H]DAMGO; conditions: rat brain membranes; read-out: opioid receptor binding Ki MOR
T6 construct: Membranes were prepared from Sprague-Dawley rat brains or guinea-pig brains according to the described procedures; tissue Labortierkunde und Laborgenetik, Medizinische Universität Wien; host or cells: Sprague-Dawley rat brain without cerebella
Method: as §5, §6, §7, §1

[7] = [35S]GTPγS, CHO human MOR membranes, read-out: MOR EC50

Structure (SMILES)	ED50 (male CD1 mice)	EC50 (DOR [1])	Emax (DOR [1])	EC50 (KOR [2])	Emax (KOR [2])	EC50 (MOR [3]; [7])	Emax (MOR [3])	functional profile at KOR (full/partial agonist) (KOR [2])	Ki (DOR [4])	Ki (KOR [5])	Ki (MOR [6])	EC50 (MOR [3])	ED50 (95% CI) (male CD1 mice)	increased agonist potency at DOR vs MOR (DOR [1]; [35S]GTPγS EC50)
CO[C@@]12CCC(=O)[C@@H]3Oc4c(O)ccc5c4[C@@]31CCN(C)[C@@H]2C5 [Compound 1, 14-O-methyloxymorphone, reference compound]	0.00326 mg/kg	37.3 ± 8.5 nM	106 ± 1%	116 ± 31 nM	77 ± 5%									
CN1CC[C@]23c4c5ccc(O)c4O[C@H]2[C@@H](NCC(=O)O)CC[C@@]3(OCCCc2ccccc2)[C@H]1C5 [Compound 5a]	0.0361 mg/kg													
CN1CC[C@]23c4c5ccc(O)c4O[C@H]2[C@H](NCC(=O)O)CC[C@@]3(OCCCc2ccccc2)[C@H]1C5 [Compound 5b]	0.0416 mg/kg													
CO[C@@]12CC[C@H](N[C@@H](CO)C(=O)O)[C@@H]3Oc4c(O)ccc5c4[C@@]31CCN(C)[C@@H]2C5 [Compound 6a, (2S)-2-[(4,5α-Epoxy-3-hydroxy-14β-methoxy-17-methylmorphinan-6α-yl)amino]-3-hydroxypropionic Acid Dihydrochloride]	0.0321 mg/kg	13.9 ± 1.5 nM	101 ± 2%	1210 ± 200 nM	44 ± 5.2%	1.6 ± 0.59 nM	87 ± 5%							
CO[C@@]12CC[C@@H](N[C@@H](CO)C(=O)O)[C@@H]3Oc4c(O)ccc5c4[C@@]31CCN(C)[C@@H]2C5 [Compound 6b, (2S)-2-[(4,5α-Epoxy-3-hydroxy-14β-methoxy-17-methylmorphinan-6β-yl)amino]-3-hydroxypropionic Acid Dihydrochloride]		6.98 ± 4.24 nM	98 ± 1%	201 ± 116 nM	88 ± 2%	3.56 ± 0.76 nM	101 ± 9%	full agonists						
CO[C@@]12CC[C@H](N[C@H](C(=O)O)C(C)C)[C@@H]3Oc4c(O)ccc5c4[C@@]31CCN(C)[C@@H]2C5 [Compound 7a, (2S)-2-[(4,5α-Epoxy-3-hydroxy-14β-methoxy-17-methylmorphinan-6α-yl)amino]-3-methylbutyric Acid Dihydrochloride]		33.8 ± 8.9 nM	91 ± 2%	462 ± 126 nM	51 ± 0.5%	10.5 ± 4 nM	95 ± 8%	partial agonist	3.91 ± 0.3 nM	325 ± 19 nM	3.16 ± 0.25 nM			
CO[C@@]12CC[C@H](N[C@@H](CC(N)=O)C(=O)O)[C@@H]3Oc4c(O)ccc5c4[C@@]31CCN(C)[C@@H]2C5 [Compound 11a, (2S)-3-Carbamoyl-2-[(4,5α-epoxy-3-hydroxy-14β-methoxy-17-methylmorphinan-6α-yl)amino]propionic Acid Dihydrochloride]	< 0.02 mg/kg	9.78 ± 3.32 nM	106 ± 6%	81.7 ± 12.3 nM	67 ± 12%	0.83 ± 0.17 nM	99 ± 0.2%					< 1 nM	15.2 (6.89–33.3) μg/kg	
CO[C@@]12CC[C@@H](N[C@@H](CC(N)=O)C(=O)O)[C@@H]3Oc4c(O)ccc5c4[C@@]31CCN(C)[C@@H]2C5 [Compound 11b, (2S)-3-Carbamoyl-2-[(4,5α-epoxy-3-hydroxy-14β-methoxy-17-methylmorphinan-6β-yl)amino]propionic Acid Dihydrochloride]		3.18 ± 0.93 nM	88 ± 5%	923 ± 11 nM	71 ± 9%	2.04 ± 0.44 nM	96 ± 14%							
CO[C@@]12CC[C@H](N[C@@H](CCC(N)=O)C(=O)O)[C@@H]3Oc4c(O)ccc5c4[C@@]31CCN(C)[C@@H]2C5 [Compound 12a, (2S)-4-Carbamoyl-2-[(4,5α-epoxy-3-hydroxy-14β-methoxy-17-methylmorphinan-6α-yl)amino]butanoic Acid Dihydrochloride]		7.8 ± 3.61 nM	104 ± 10%	185 ± 30 nM	70 ± 3%	2.27 ± 0.11 nM	90 ± 8%							
CO[C@@]12CC[C@@H](N[C@@H](CCC(N)=O)C(=O)O)[C@@H]3Oc4c(O)ccc5c4[C@@]31CCN(C)[C@@H]2C5.Cl.Cl [Compound 12b, (2S)-4-Carbamoyl-2-[(4,5α-epoxy-3-hydroxy-14β-methoxy-17-methylmorphinan-6β-yl)amino]butanoic Acid Dihydrochloride]		3.96 ± 0.07 nM	103 ± 9%	1410 ± 418 nM	63 ± 17%	9.54 ± 1.15 nM	98 ± 4%							2–4 times
CN1CC[C@]23c4c5ccc(O)c4O[C@H]2[C@@H](O)C=C[C@H]3[C@H]1C5 [morphine, reference compound]													437 (249–768) μg/kg	

From paper PMC6348443 (Journal of Medicinal Chemistry, 2018)
